From publication doi:10.1101/2025.07.01.662521v3, “Ligand-induced Conformational Plasticity of the CTLH E3 Ligase Receptor GID4” (biorxiv, 2026)
Where two headings read alike, the source gives them in different places.

Experiments:
GID4 [1] = target: T1, GID4 (Homo sapiens, UniProt Q8IVV7); experiment: biochemical; set-up: SPR binding affinity to immobilized biotinylated GID4; conditions: read-out: KD by SPR
T1 construct: residues 116-300; N-terminal Strep-SUMO-3C-6xHis-Avi, HRV-3C cleaved, Avi-tag kept and biotinylated; E. coli BL21(DE3)
T1 sequence (Q8IVV7 116-300): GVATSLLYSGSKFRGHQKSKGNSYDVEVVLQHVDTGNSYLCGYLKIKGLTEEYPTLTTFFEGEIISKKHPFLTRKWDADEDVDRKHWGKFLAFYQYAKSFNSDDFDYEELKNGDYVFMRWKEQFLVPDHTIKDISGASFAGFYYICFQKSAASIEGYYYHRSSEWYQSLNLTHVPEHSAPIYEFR
Method: (§1) Following the identification of the binding pocket and the key interactions of the initial fragment, we initiated the synthesis of a series of analogs to explore the structure-activity relationship (SAR) (Table 1). The resulting changes in affinity were evaluated using surface plasmon resonance (SPR) and differential scanning fluorimetry (DSF). […] In the next step, we replaced the 3-Cl group to find an additional potency boost. […] All constructs were verified by sequencing. Protein was expressed by transforming plasmid into chemically competent recombinant E. coli BL21(DE3) strain. E coli was cultured in LB medium supplemented with 50 µg/mL kanamycin in shaker flasks at 37 °C and 160 rpm. Once an optical density at 600 nm (OD600) reached 0.5-0.6, protein expression was induced by an addition of 0.1 mM IPTG.

GID4 [2] = target: T2, GID4 (Homo sapiens, UniProt Q8IVV7); set-up: Differential scanning fluorimetry, thermal shift of GID4; conditions: binder
T2 construct: residues 116-300, N-terminal 6xHis-SUMO tag (DSF construct)
T2 sequence (Q8IVV7 1-300): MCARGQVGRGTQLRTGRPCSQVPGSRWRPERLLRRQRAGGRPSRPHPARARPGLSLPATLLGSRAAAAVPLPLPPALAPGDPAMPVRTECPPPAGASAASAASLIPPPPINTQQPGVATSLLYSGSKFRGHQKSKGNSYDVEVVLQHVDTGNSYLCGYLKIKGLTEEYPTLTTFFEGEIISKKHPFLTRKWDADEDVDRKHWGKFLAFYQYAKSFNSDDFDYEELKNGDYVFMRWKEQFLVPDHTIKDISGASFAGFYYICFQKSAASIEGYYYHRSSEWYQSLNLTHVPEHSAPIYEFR
Method: Following the identification of the binding pocket and the key interactions of the initial fragment, we initiated the synthesis of a series of analogs to explore the structure-activity relationship (SAR) (Table 1). The resulting changes in affinity were evaluated using surface plasmon resonance (SPR) and differential scanning fluorimetry (DSF). […] In the next step, we replaced the 3-Cl group to find an additional potency boost. […] MATERIALS AND METHODS Recombinant Protein Expression and Purification GID4 Expression and Purification Human Glucose-induced degradation protein 4 homolog (Gid4, UniProt ID: Q8IVV7) residues 124-289 were cloned into a vector to generate a N-terminal 6xHis-SUMO-tag for crystallography studies, residues 116-300 were cloned into a vector to generate a N-terminal 6xHis-SUMO-tag for DSF studies and residues 116-300 were cloned into a vector to generate a N-terminal Strep-SUMO-3C-6xHis-AVI-tag for SPR experiments. All constructs were verified by sequencing. Protein was expressed by transforming plasmid into chemically competent recombinant E. coli BL21(DE3) strain. E coli was cultured in LB medium supplemented with 50 µg/mL kanamycin in shaker flasks at 37 °C and 160 rpm. Once an optical density at 600 nm (OD600) reached 0.5-0.6, protein expression was induced by an addition of 0.1 mM IPTG.

GID4 [3] = target: T1, GID4; experiment: SPR, steady-state affinity; assay type: binding
Excerpt: SPR, steady-state affinity on GID4

GID4 [4] = target: T1, GID4; experiment: SPR; assay type: binding
GID4 [5] = target: T1, GID4; set-up: SPR binding affinity to immobilized biotinylated GID4; conditions: binder
Method: as §1

BRD4 = BRD4 (Homo sapiens, UniProt O60885); set-up: SPR binary binding affinity to BRD4; conditions: binder
Excerpt: (§2) Following the confirmation of cellular target engagement, we assessed the ability of GID4 to induce targeted protein degradation by synthesizing a panel of GID4-BRD4 bifunctional compounds. We utilized our lead ligand 14 together with a well-known BRD4 ligand JQ1, exploring a range of standard linkers with varying exit vectors and lengths, including rigid alkyl, and flexible PEG (2x, or 4xPEG) (Figure 6A). […] We assessed binary interactions with GID4 and BRD4, as well as the ternary complex formation by SPR and HTRF (Figure 6 and Table S2). All bifunctional compounds, except for 26, retained high affinity for BRD4 (K ^BRD4 =0.006-0.02 µM). […] Crucially, all degraders equipped with the active JQ1 warhead mediated ternary complex formation between GID4 and BRD4 (Figure 6 B-C). We further utilized NanoBRET assay to confirm BRD4 engagement, in both intact and lysed HEK293T cells (Table S2). […] This discrepancy indicates potential permeability limitations or active efflux of the bifunctional molecules. Despite successful BRD4 engagement, none of the degraders stabilized GID4 in the intracellular engagement assay, resulting in negative ΔTagg values (Table S2). This was consistent across all compounds, independent of linker length, composition, or exit vector. Consequently, no degradation of BRD4 was observed (Figures S11–S13), highlighting that while ternary complex formation is achievable in vitro, the physicochemical properties of these GID4-based PROTACs currently limit their intracellular efficacy.

HiBiT-GID4(FL) = target: T3, HiBiT-GID4(FL) (Homo sapiens, UniProt Q8IVV7); set-up: species or system HEK293T; HiBiT cellular thermal shift of full-length GID4, luminescence, delta Tagg; conditions: binder
T3 construct: full length, N-terminal HiBiT tag, stably expressed in HEK293T (piggyBac)
T3 sequence (Q8IVV7 1-300): T2 sequence (Q8IVV7 1-300)
Excerpt: as §2

Structure (SMILES)	Kd (GID4 [1]) [µM]	ΔTm by DSF (°C) (GID4 [2])	also measured
COC1CCCN(C(=O)c2cc(-c3cc(F)cc(N=C(N)N4CCC(C)(C)CC4)c3)oc2C)C1 (racemic) [compound 19]	0.05	7.1 ± 0.01 °C	–
COCCOCCC1CCCN(C(=O)c2cc(-c3cc(F)cc(N=C(N)N4CCC(C)(C)CC4)c3)oc2C)C1 (racemic) [compound 21]	0.05	6.8 ± 0.04 °C	–
NC(=Nc1cccc(Cl)c1)N1CCCCC1 [compound 2]	–	1.6 ± 0.13 °C	Kd (GID4 [4]; read-out: KD): 23 µM
NC(=Nc1cccc(F)c1)N1CCCCC1 [compound 3]	–	3.3 ± 0.06 °C	Kd (GID4 [4]; read-out: KD): 12 µM
NC(=Nc1cc(F)cc(Cl)c1)N1CCCCC1 [compound 4]	–	2.8 ± 0.08 °C	Kd (GID4 [4]; read-out: KD): 8.16 µM
CC1CCCCN1C(N)=Nc1cc(F)cc(Cl)c1 (stereo not shown) [compound 5]	–	3.3 ± 0.04 °C	Kd (GID4 [4]; read-out: KD): 2.87 µM
CC1CCN(C(N)=Nc2cc(F)cc(Cl)c2)CC1 [compound 6]	–	3.2 ± 0.08 °C	Kd (GID4 [4]; read-out: KD): 2.94 µM
Cc1ccc(-c2cc(F)cc(N=C(N)N3CCCCC3C)c2)o1 (stereo not shown) [compound 8]	–	4.3 ± 0.05 °C	Kd (GID4 [4]; read-out: KD): 0.94 µM
Cc1ccc(-c2cc(F)cc(N=C(N)N3CCC(C)CC3)c2)o1 [compound 9]	–	–	Kd (GID4 [4]; PBS pH 7.4, 0.05% P-20, 1 mM DTT, 1% DMSO, biotinylated GID4 immobilised on SA chip, read-out: KD): 0.73 µM
CNC(=O)c1cc(-c2cc(F)cc(N=C(N)N3CCC(C)(C)CC3)c2)oc1C [compound 11]	0.31	4.8 ± 0.07 °C	–
Cc1oc(-c2cc(F)cc(N=C(N)N3CCC(C)(C)CC3)c2)cc1C(=O)N(C)C [compound 12]	0.06	6.9 ± 0.18 °C	–
Cc1oc(-c2cc(F)cc(N=C(N)N3CCC(C)(C)CC3)c2)cc1C(=O)N1CCCCC1 [compound 14]	–	7.7 ± 0.05 °C	Kd (GID4 [4]; read-out: KD^GID4): 0.03 µM
COC1CCN(C(=O)c2cc(-c3cc(F)cc(N=C(N)N4CCC(C)(C)CC4)c3)oc2C)CC1 [compound 18]	0.13	7.1 ± 0,04 °C	–
COCCOCCC1CCN(C(=O)c2cc(-c3cc(F)cc(N=C(N)N4CCC(C)(C)CC4)c3)oc2C)CC1 [compound 20]	0.05	6.5 ± 0,03 °C	–
Cc1oc(-c2cc(F)cc(/N=C(/N)N3CCC(C)(C)CC3)c2)cc1C(=O)N1CCC(CN2CCN(C(=O)C[C@@H]3N=C(c4ccc(Cl)cc4)c4c(sc(C)c4C)-n4c(C)nnc43)CC2)CC1 [compound 24, 24]	–	–	Kd (GID4 [5]): 0.32 µM; Kd (BRD4): 0.013 µM; GID4 intracellular target engagement ΔTagg [ºC] (HiBiT-GID4(FL)): -1.7 ± 1.2 °C
Cc1oc(-c2cc(F)cc(/N=C(/N)N3CCC(C)(C)CC3)c2)cc1C(=O)N1CCCC(CN2CCN(C(=O)C[C@@H]3N=C(c4ccc(Cl)cc4)c4c(sc(C)c4C)-n4c(C)nnc43)CC2)C1 (stereo partly shown) [compound 25, 25]	–	–	Kd (GID4 [5]): 0.5 µM; Kd (BRD4): 0.02 µM; GID4 intracellular target engagement ΔTagg [ºC] (HiBiT-GID4(FL)): -1.4 ± 0.3 °C
Cc1oc(-c2cc(F)cc(/N=C(/N)N3CCC(C)(C)CC3)c2)cc1C(=O)N1CCC(CN2CCN(C(=O)C[C@H]3N=C(c4ccc(Cl)cc4)c4c(sc(C)c4C)-n4c(C)nnc43)CC2)CC1 [compound 26]	–	–	Kd (GID4 [4]; PBS pH 7.4, 0.05% P-20, 1 mM DTT, 1% DMSO, biotinylated GID4 immobilised on SA chip, read-out: KD^GID4): 0.63 µM; GID4 intracellular target engagement ΔTagg [ºC] (HiBiT-GID4(FL)): -2 ± 0.6 °C
Cc1oc(-c2cc(F)cc(/N=C(/N)N3CCC(C)(C)CC3)c2)cc1C(=O)N1CCCC(OCCOCCOCCNC(=O)C[C@@H]2N=C(c3ccc(Cl)cc3)c3c(sc(C)c3C)-n3c(C)nnc32)C1 (stereo partly shown) [compound 28, 28]	–	–	Kd (BRD4): 0.016 µM; GID4 intracellular target engagement ΔTagg [ºC] (HiBiT-GID4(FL)): -2.6 ± 3.7 °C
Cc1oc(-c2cc(F)cc(/N=C(/N)N3CCC(C)(C)CC3)c2)cc1C(=O)N1CCC(OCCOCCOCCOCCOCCNC(=O)C[C@@H]2N=C(c3ccc(Cl)cc3)c3c(sc(C)c3C)-n3c(C)nnc32)CC1 [compound 29, 29]	–	–	Kd (BRD4): 0.006 µM; GID4 intracellular target engagement ΔTagg [ºC] (HiBiT-GID4(FL)): 0.1 ± 0.4 °C
Cc1oc(-c2cc(F)cc(/N=C(/N)N3CCC(C)(C)CC3)c2)cc1C(=O)N1CCCC(OCCOCCOCCOCCOCCNC(=O)C[C@@H]2N=C(c3ccc(Cl)cc3)c3c(sc(C)c3C)-n3c(C)nnc32)C1 (stereo partly shown) [compound 30, 30]	–	–	Kd (BRD4): 0.006 µM; GID4 intracellular target engagement ΔTagg [ºC] (HiBiT-GID4(FL)): -0.3 ± 1.0 °C

More lines, main results first:

Kd (GID4 [1]) [µM]	ΔTm by DSF (°C) (GID4 [2])	Structure (SMILES)	also measured
0.09	6.4 ± 0.02 °C	CC(=O)N1CCN(CC2CCCN(C(=O)c3cc(-c4cc(F)cc(N=C(N)N5CCC(C)(C)CC5)c4)oc3C)C2)CC1 (racemic) [compound 23]	–
–	1.0 ± 0.06 °C	NC(=Nc1ccccc1)N1CCCCC1 [compound 1]	Kd (GID4 [3]): 78.8 µM
–	3.3 ± 0.03 °C	CC1CCCN(C(N)=Nc2cc(F)cc(Cl)c2)C1 (stereo not shown) [compound 7]	Kd (GID4 [4]; read-out: KD): 4.12 µM
1.43	3.9 ± 0.03 °C	Cc1oc(-c2cc(F)cc(N=C(N)N3CCC(C)(C)CC3)c2)cc1C(=O)Nc1ccccc1 [compound 13]	–
0.12	5.9 ± 0.08 °C	Cc1oc(-c2cc(F)cc(/N=C(/N)N3CCC(C)(C)CC3)c2)cc1C(=O)N1CCN(C)CC1 [compound 15, 15]	–
0.09	6.2 ± 0.01 °C	Cc1oc(-c2cc(F)cc(/N=C(/N)N3CCC(C)(C)CC3)c2)cc1C(=O)N1CCOCC1 [compound 16, 16]	–
0.14	5.9 ± 0.04 °C	CC(=O)N1CCN(CC2CCN(C(=O)c3cc(-c4cc(F)cc(N=C(N)N5CCC(C)(C)CC5)c4)oc3C)CC2)CC1 [compound 22]	–
